Source: US10207984B2, “Cyclopropyl derivatives and methods of use” (Emory University, priority 2011, dated 2019)
Structures can show the parent of a compound that is named as a salt. Where two headings read alike, the source gives them in different places.

Tests used:
[1] = molecular target: T1, norepinephrine transporters (NET) (Rattus norvegicus, UniProt Q9WTR4); experiment: NET binding, displacement of [3H]nisoxetine in rat brain membranes
T1 construct: Whole rat brains (minus cerebellum) are homogenized; from tissue; host or cells: rat whole brain minus cerebellum, membranes
Procedure: (§1) Binding of analogs at norepinephrine transporters (NET) was determined by displacement of [^3H]nisoxetine binding. […] The membranes are resuspended in nisoxetine assay buffer (300 mM NaCl, 5 mM KCl, 50 mM Tris-HCl, pH 7.4) and centrifuged again before final resuspension in volumes of buffer. Assay tubes contain 750 μl of brain membranes, [^3H]nisoxetine (0.7 nM) together with unlabeled drugs dissolved in nisoxetine assay buffer to a final volume of 1 ml. Tubes are incubated for 40 min at 25° C., and the reaction is terminated by rapid filtration with 3×4 mL of cold Tris buffer through Whatman GF/B glass fiber filters which have been pre-soaked in Tris buffer containing 0.1% BSA for at least 1 h. Non-specific binding is determined in the presence of 1 μM desipramine. In [^3H]citalopram and [^3H]nisoxetine binding assays, radioactivity is determined by liquid scintillation spectrophotometry (efficiency: 50%) after eluting filters overnight in 5 mL of Ecolite scintillation fluid (ICN). IC50 values are calculated from displacement curves using 7-10 concentrations of unlabeled analogs. […] For [^3H]paroxetine and [^3H]nisoxetine binding assays, Ki values are calculated using the Cheng-Prusoff equation.

[2] = molecular target: T2, 5-HT transport (SERT) sites (Rattus norvegicus, UniProt P31652); experiment: SERT binding, displacement of [3H]citalopram in rat frontal cortex membranes
T2 construct: Tissue is obtained from frozen rat brains as described above; from tissue; host or cells: rat frontal cortex membranes (frozen rat brains)
Procedure: Affinities of analogs at 5-HT transport (SERT) sites are determined by displacement of [^3H] citalopram binding in membranes from rat frontal cortex. […] Assay tubes contain 50 mg (original wet weight) of membranes, 0.4 nM [^3H]citalopram, and various concentrations of unlabeled drugs dissolved in citalopram assay buffer in a final volume of 2 ml. Tubes are incubated for 60 min at 25° C., and the reaction is terminated by rapid filtration with 3×4 mL of cold Tris buffer through Whatman GF/B glass fiber filters pre-soaked in Tris buffer containing 0.1% BSA for at least 1 h. Non-specific binding is determined in the presence of 10 μM fluoxetine.
as §1

[3] = molecular target: T3, dopamine transport (DAT) sites (Rattus norvegicus, UniProt P23977); experiment: DAT binding, displacement of [125I]RTI-55 in rat striatum membranes
T3 construct: from tissue; host or cells: Sprague-Dawley rat striatum membranes
Procedure: Frozen brains from Sprague-Dawley rats are obtained commercially and striata are dissected on ice. […] Tubes are incubated for 50 min at 25° C., and the reaction is terminated by rapid filtration with 3-5 ml of cold Tris buffer through Whatman GF/B glass fiber filters pre-soaked in Tris buffer containing 0.1% BSA for at least 1 h. Non-specific binding is determined in the presence of 1 μMWF-23. […]

Log-P (Table 1) = assay type: physicochemical
SNL rats = experiment: Mechanical allodynia (paw withdrawal threshold) in L5/L6 spinal nerve ligation (SNL) model of neuropathic pain; assay type: in vivo, rat; settings: for anti-allodynic effect (in words): i.t., clonidine 10 μg, HD-283 30 μg, HD-286 and HD-288 up to 3 μg
Description: A 3 cm incision was made in the back using the iliac crests as a midpoint. An incision was then made in the underlying muscle, which was then separated by both sharp and blunt dissection to expose the left transverse process of the fifth lumbar vertebra. The transverse process was removed using bone microrongeurs, and the fifth lumbar nerve was exteriorized from underneath the spinal column using a small metal hook and ligated using 4.0 silk suture with sufficient pressure to cause the nerve to bulge on each side of the ligature. The sixth lumbar nerve was exteriorized from underneath the iliac bone at the sciatic notch and ligated in a similar manner. All muscle layers were sutured using 4.0 chromic gut, the skin was sutured using 4.0 nylon suture.
The animal is placed in a stereotaxic frame to immobilize the head under pentobarbital anesthesia. The animal's body is lifted and supported to render the spinal column straight and level and the animal's head is placed downward such the top of the skull forms a 90° angle with the spinal column. A small incision is placed at the back of the neck and the underlying muscles are blunt dissected to reveal the atlanto-occipital membrane. A small incision is placed in the atlanto-occipital membrane through which a 32 ga polyethylene catheter is inserted that is 8 cm in length. The catheter is anchored to the neck muscles with 4.0 silk suture and the exterior wounds are closed with 4.0 nylon suture.
All compounds were dissolved in 0.9% (wt/vol) saline, pH 7.4 and administered through the intrathecal catheter in a volume of 5 μl, followed by 15 μl of 0.9% saline to flush the catheter.
Paw withdrawal threshold was determined before and at selected time points following intrathecal drug administration using calibrated von Frey filaments. The animals are placed in elevated Plexiglas chambers with wire mesh floors and acclimated for a minimum of 30 minutes. Beginning with a filament calibrated to bend with a force of 2 g of pressure, the filament is applied to the plantar surface of the left hindpaw with sufficient force to bend slightly and left in place for 8 seconds or until the animal withdraws it's paw from the filament. In the absence of a paw withdrawal, the next highest calibrated filament is applied in a similar manner. In the presence of a paw withdrawal, the next lowest calibrated filament is applied. This up-down method continues until 4 responses are recorded after an initial positive response. The paw withdrawal threshold is calculated using Dixon non-parametric statistics.
The potency and efficacy of novel SNRT analogs in reversing mechanical hypersensitivity were determined in the L5/L6 spinal nerve ligation (SNL) model of neuropathic pain in rats. Compounds were administered intrathecal (i.t.) and the effect on paw withdrawal threshold was assessed at various time points following treatment.

[4] = [3H]nisoxetine displacement, rat brain membranes, Ki by Cheng-Prusoff, read-out: NET
[5] = [3H]citalopram displacement, rat frontal cortex membranes, Ki by Cheng-Prusoff, read-out: SERT
[6] = [125I]RTI-55 displacement, rat striatum membranes, reported as IC50, read-out: DAT

T1 sequence (Q9WTR4 1-597): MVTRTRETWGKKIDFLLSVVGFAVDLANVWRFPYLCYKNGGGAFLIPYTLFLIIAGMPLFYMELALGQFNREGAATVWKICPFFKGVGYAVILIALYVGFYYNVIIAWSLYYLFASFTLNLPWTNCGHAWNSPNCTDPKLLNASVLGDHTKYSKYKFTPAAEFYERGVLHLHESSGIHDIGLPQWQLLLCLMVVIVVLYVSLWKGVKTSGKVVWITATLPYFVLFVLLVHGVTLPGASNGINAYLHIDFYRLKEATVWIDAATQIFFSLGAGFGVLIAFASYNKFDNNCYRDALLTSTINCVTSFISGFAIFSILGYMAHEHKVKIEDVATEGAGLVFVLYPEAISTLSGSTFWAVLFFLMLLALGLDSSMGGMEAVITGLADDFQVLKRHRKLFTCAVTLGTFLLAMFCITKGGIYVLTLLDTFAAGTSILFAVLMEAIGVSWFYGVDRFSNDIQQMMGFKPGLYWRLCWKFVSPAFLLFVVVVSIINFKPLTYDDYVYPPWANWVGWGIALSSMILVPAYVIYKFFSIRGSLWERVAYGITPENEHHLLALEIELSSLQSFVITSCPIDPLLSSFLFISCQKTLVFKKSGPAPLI
T3 sequence (P23977 whole entry): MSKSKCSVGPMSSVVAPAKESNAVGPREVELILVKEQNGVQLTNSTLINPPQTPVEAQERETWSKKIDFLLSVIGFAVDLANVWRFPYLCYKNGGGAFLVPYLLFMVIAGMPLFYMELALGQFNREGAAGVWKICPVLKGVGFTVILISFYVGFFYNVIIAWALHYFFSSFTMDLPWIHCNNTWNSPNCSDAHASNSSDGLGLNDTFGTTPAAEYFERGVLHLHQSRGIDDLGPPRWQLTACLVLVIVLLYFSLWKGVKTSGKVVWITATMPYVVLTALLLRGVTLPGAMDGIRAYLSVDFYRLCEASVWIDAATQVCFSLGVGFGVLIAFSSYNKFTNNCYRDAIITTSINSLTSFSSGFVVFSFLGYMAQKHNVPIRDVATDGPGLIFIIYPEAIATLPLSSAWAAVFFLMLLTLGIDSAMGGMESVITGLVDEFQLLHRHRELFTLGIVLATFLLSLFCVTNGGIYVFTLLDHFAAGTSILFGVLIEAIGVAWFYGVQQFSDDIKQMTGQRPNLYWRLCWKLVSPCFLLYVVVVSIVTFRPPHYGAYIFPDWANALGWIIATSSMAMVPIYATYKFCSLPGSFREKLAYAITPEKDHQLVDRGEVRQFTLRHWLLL
T2 sequence (P31652 whole entry): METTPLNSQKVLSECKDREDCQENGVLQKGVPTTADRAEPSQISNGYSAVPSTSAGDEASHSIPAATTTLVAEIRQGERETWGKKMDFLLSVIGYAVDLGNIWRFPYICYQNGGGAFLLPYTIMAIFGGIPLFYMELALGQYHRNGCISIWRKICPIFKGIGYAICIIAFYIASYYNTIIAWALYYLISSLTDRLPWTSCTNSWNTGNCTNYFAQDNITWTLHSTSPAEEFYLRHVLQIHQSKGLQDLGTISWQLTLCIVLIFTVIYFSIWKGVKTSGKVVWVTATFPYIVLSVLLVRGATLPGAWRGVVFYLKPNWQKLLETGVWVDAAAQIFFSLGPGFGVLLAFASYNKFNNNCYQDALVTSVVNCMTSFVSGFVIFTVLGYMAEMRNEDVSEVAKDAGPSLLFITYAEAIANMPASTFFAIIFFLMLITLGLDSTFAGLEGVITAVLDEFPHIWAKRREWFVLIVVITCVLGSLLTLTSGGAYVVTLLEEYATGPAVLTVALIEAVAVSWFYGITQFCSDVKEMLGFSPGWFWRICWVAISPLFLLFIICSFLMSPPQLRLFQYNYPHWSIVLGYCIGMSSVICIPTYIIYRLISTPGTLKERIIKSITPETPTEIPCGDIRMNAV

| SMILES | Ki [1, 4] | Ki [2, 5] | IC50 [3, 6] | Log-P (Log-P (Table 1)) | further results |
| --- | --- | --- | --- | --- | --- |
| CNCC1CC1(C(=O)OC)c1ccccc1 (racemic) [HD-284, Methyl 2-((methylamino)methyl)-1-phenylcyclopropanecarboxylate] | 152 ± 65 nM | 157 ± 4.8 nM | 1780 ± 87 nM | 1.65 |  |
| CNCC1CC1(C(=O)OC)c1ccc(Br)cc1 (racemic) [HD-285, Methyl 1-(4-bromophenyl)-2-((methylamino)methyl)cyclopropanecarboxylate] | 3.7 ± 1.4 nM | 210 ± 10 nM | 1460 ± 470 nM | 2.51 |  |
| CNCC1CC1(C(=O)OC)c1ccc(-c2ccccc2)cc1 (racemic) [HD-286, Methyl 1-([1,1′-biphenyl]-4-yl)-2-((methylamino)methyl)cyclopropanecarboxylate hydrochloride] | 315 ± 100 nM | 4.85 ± 1 nM |  | 3.54 | anti-allodynic effect (in words) (SNL rats): significantly lower efficacy |
| CNCC1CC1(C(=O)OC)c1ccc2ccccc2c1 (racemic) [HD-287, Methyl 2-((methylamino)methyl)-1-(naphthalen-2-yl)cyclopropanecarboxylate hydrochloride] | 3.49 ± 0.64 nM |  |  | 2.82 | Ki [2]: 6.58 ± 0.71 nM; IC50 [3]: 177 ± 44 nM |
| CNCC1CC1(C(=O)OC)c1ccc(Cl)c(Cl)c1 (racemic) [HD-288, Methyl 1-(3,4-dichlorophenyl)-2-((methylamino)methyl)cyclopropanecarboxylate] | 0.8 ± 0.02 nM | 5.6 ± 0.39 nM |  | 2.95 | PWT after treatment (SNL rats; 3 μg i.t.): 24.9 ± 2.5 g; PWT before treatment (baseline) (SNL rats; before i.t. drug): 2.9 ± 0.4 g; anti-allodynic A50 (SNL rats; i.t. administration): 0.6 ± 0.3 µg; anti-allodynic effect (in words) (SNL rats): significantly greater than clonidine |
| CNCC1CC1(C(=O)OC)c1ccc(OC)c(OC)c1 (racemic) [HD-289, Methyl 1-(3,4-dimethoxyphenyl)-2-((methylamino)methyl)cyclopropanecarboxylate hydrochloride] | 8.62 ± 0.71 nM | 106 ± 21 nM | 1360 ± 198 nM | 1.31 |  |
| CNCC1CC1(C(=O)OC)c1ccccc1Cl (racemic) [HD-290, Methyl 1-(2-chlorophenyl)-2-((methylamino)methyl)cyclopropanecarboxylate] | 289 ± 24 nM | 329 ± 54 nM | 1840 ± 350 nM | 2.36 |  |
| Clc1cccc(Cl)c1N=C1NCCN1 [Clonidine, clonidine, reference compound] |  |  |  |  | anti-allodynic effect (in words) (SNL rats): reversed mechanical allodynia |
| CCN(CC)C(=O)C1(c2ccccc2)CC1CN (centres unmarked) [HD-283, Milnacipran, reference compound] |  |  |  | 1.91 | Ki [1]: 23.8 ± 1.7 nM; transporter selectivity (in words) ([1]; NET versus SERT binding): non-selective; Ki [2]: 35.1 ± 4.4 nM; IC50 [3]: 1970 ± 230 nM; anti-allodynic effect (in words) (SNL rats): reversed mechanical allodynia |
| CNC[C@H]1C[C@@]1(C(=O)OC)c1ccc(Br)cc1 [HD-324, (1S,2S)-methyl 1-(4-bromophenyl)-2-((methylamino)methyl)cyclopropanecarboxylate] | 44.9 ± 1 nM | 946 ± 71 nM | > 10000 nM | 2.51 |  |
| CNC[C@@H]1C[C@]1(C(=O)OC)c1ccc(Br)cc1 [HD-325, (1R,2R)-methyl 1-(4-bromophenyl)-2-((methylamino)methyl)cyclopropanecarboxylate] | 2.49 ± 0.07 nM | 47 ± 2.9 nM | 333 ± 79 nM | 2.51 |  |
| CNC[C@H]1C[C@@]1(C(=O)OC)c1ccc(Cl)c(Cl)c1 [HD-326, (1S,2S)-methyl 1-(3,4-dichlorophenyl)-2-((methylamino)methyl)cyclopropanecarboxylate] | 8.11 ± 0.8 nM | 40.5 ± 4.3 nM |  | 2.95 |  |
| CNC[C@@H]1C[C@]1(C(=O)OC)c1ccc(Cl)c(Cl)c1 [HD-327, (1R,2R)-methyl 1-(3,4-dichlorophenyl)-2-((methylamino)methyl)cyclopropanecarboxylate] | 0.31 ± 0.01 nM | 2.42 ± 0.31 nM |  | 2.95 |  |
| CNC[C@H]1C[C@@]1(C(=O)OC)c1ccc(Br)c(Br)c1 [HD-328, (1S,2S)-methyl 1-(3,4-dibromophenyl)-2-((methylamino)methyl)cyclopropanecarboxylate] | 4.57 ± 0.66 nM | 18.4 ± 2.5 nM | 87.9 ± 9.5 nM | 3.17 |  |
| CNC[C@@H]1C[C@]1(C(=O)OC)c1ccc(Br)c(Br)c1 [HD-329, (1R,2R)-methyl 1-(3,4-dibromophenyl)-2-((methylamino)methyl)cyclopropanecarboxylate] | 0.62 ± 0.12 nM | 1.71 ± 0.05 nM | 35.2 ± 4.6 nM | 3.17 |  |
| CNC[C@H]1C[C@@]1(C(=O)OC)c1ccc2ccccc2c1 [HD-330, (1S,2S)-methyl 2-((methylamino)methyl)-1-(naphthalen-2-yl)cyclopropanecarboxylate] | 16.4 ± 0.52 nM |  | 313 ± 55 nM | 2.82 | Ki [2]: 27 ± 3.4 nM |
| CNC[C@@H]1C[C@]1(C(=O)OC)c1ccc2ccccc2c1 [HD-331, (1R,2R)-methyl 2-((methylamino)methyl)-1-(naphthalen-2-yl)cyclopropanecarboxylate] | 10.4 ± 0.89 nM |  | 320 ± 51 nM | 2.82 | Ki [2]: 15 ± 2.8 nM |
| CNC[C@H]1C[C@@]1(C(=O)OC)c1ccc(-c2ccccc2)cc1 [HD-332, (1S,2S)-methyl 1-([1,1′-biphenyl]-4-yl)-2-((methylamino)methyl)cyclopropanecarboxylate] | > 10000 nM | 79.8 ± 21 nM |  | 3.54 |  |
| CNC[C@@H]1C[C@]1(C(=O)OC)c1ccc(-c2ccccc2)cc1 [HD-333, (1R,2R)-methyl 1-([1,1′-biphenyl]-4-yl)-2-((methylamino)methyl)cyclopropanecarboxylate] | 86.6 ± 19 nM | 2.69 ± 0.62 nM |  | 3.54 |  |
